From US9095624B2 (priority 2011, dated 2015)

Columns and labels:
[1] = tested on: DBA/2 mice with Cloudman S91 melanoma; test: Photodynamic therapy, Cloudman S91 melanoma; format: in vivo; settings: PDT
Method: (§1) In order to evaluate the potential utility of MTP for enhancing the therapeutic efficacy of a drug that requires localization within the cell nucleus to be effective, photodynamic therapy (PDT) studies were performed in three different murine subcutaneous tumor models, with PDT initiated three hours after photosensitizer (PS) injection. The comparative efficacy of photodynamic therapy with bacteriochlorin p conjugated with DTox-HMP-NLS-αMSH MTP and free bacteriochlorin p is reported in FIGS. 11A-D.
The second experiment utilized DBA/2 mice with Cloudman S91 melanoma. FIG. 11C reports tumor growth, mean±SEM with the injection and illumination cycles being indicated with arrows. The average tumor volumes are shown up to the last day when all animals were alive in a group. FIG. 11D provides the Kaplan-Meier survival curve. […] The median survival for mice receiving PS-MTP conjugate was 56.0±18.6 days compared with 21.0±0.7 days for the control group and 31.0±1.3 days for the bacteriochlorin group (FIG. 11D).

[2] = tested on: C57Black/6J mice with B16-F1 melanoma; test: Photodynamic therapy, B16-F1 melanoma; format: in vivo
Method: as §1
The first experiment was performed in C57Black/6J mice with B16-F1 melanoma. FIG. 11A reports tumor growth, mean±SEM, with injection and illumination cycles indicated with arrows. The average tumor volumes are shown up to the last day when all animals were alive in a group. FIG. 11B provides the Kaplan-Meier survival curve. […] The median survival for mice receiving PS-MTP conjugate was 32.0±1.3 days compared with 17.0±1.5 days for the control group and 20.0±5.5 days for the bacteriochlorin group (FIG. 11B). The difference in survival between PS-MTP and each of two control groups was significant (p<0.01).

[3] = tested on: Balb/c ByJIco-nu/nu mice with A431 human epidermoid carcinoma xenografts; settings: mouse, in vivo

bacteriochlorin p
median survival [1]: 31.0 ± 1.3 days | median survival ([2]; PDT): 20.0 ± 5.5 days | inhibition in tumor growth ([2]; PDT three hours after photosensitizer injection): no significant effect

C=Cc1c(C)c2cc3nc(c(CC(=O)O)c4[nH]c(cc5nc(cc1[nH]2)C(C)=C5CC)c(C)c4C(=O)O)[C@@H](CCC(=O)O)[C@@H]3C [chlorin e6]
animals remaining alive at the end of the observation period [3]: 20%
